Measured values taken from patent US12692253B2, “Antimicrobial compounds and methods” (Curza Global, LLC, priority 2019, dated 2026).
Read-outs that look alike come from different tables or passages of the source.

Assays:
[1] = target: Rabbit Reticulocyte Lysate (eukaryotic protein synthesis); assay: Rabbit reticulocyte lysate luciferase assay (inhibition of eukaryotic protein synthesis); format: biochemical; settings: read-out: Rabbit reticulocyte IC50 (μM/% inhib.)
Summary of the method: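 Percent inhibition calculated against water-only controls from luminescence; background set by lysate lacking RNA. Compounds, 8-point 2-fold titration, incubated 90 minutes at 30° C with nuclease-treated rabbit reticulocyte lysate programmed with luciferase control RNA plus complete amino acids.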

E. faecalis (Ef) = assay: Broth microdilution minimum inhibitory concentration (MIC), CLSI; format: cell-based; settings: for MIC: Enterococcus faecalis, read-out: Ef + bicarb MIC
Summary of the method: (§1)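 Bacteria grown at 35±2 °C to 0.5 McFarland turbidity were added at 5×10^4 CFU/well to triplicate two-fold compound series (8 dilutions). Media were cation-adjusted Mueller-Hinton broth alone or with sodium bicarbonate (6.25 or 25 mM final) or heat-inactivated human serum (0–50%), per modified CLSI method.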

A. baumannn (Ab) = assay: as above; format: cell-based; settings: for MIC: read-out: Ab + bicarb MIC; for Ab + bicarb MIC: A. baumannii, growth medium supplemented with sodium bicarbonate
Summary of the method: as §1

E. coli (Ec) = assay: as above; format: cell-based; settings: for MIC: Escherichia coli, read-out: E. coli + bicarb MIC
Summary of the method: as §1

S. aureus (Sa) = assay: as above; format: cell-based; settings: for MIC: Staphylococcus aureus, read-out: Sa + bicarb MIC
Summary of the method: as §1

P. aeruginosa (Pa) = assay: as above; format: cell-based; settings: for MIC: Pseudomonas aeruginosa, read-out: Pa MIC + bicarb
Summary of the method: as §1

[2] = tested on: E. coli S30 extract (bacterial protein synthesis); assay: E. coli S30 extract coupled transcription-translation luciferase assay (inhibition of bacterial protein synthesis); format: biochemical; settings: read-out: S30 IC50 (μM/% inhib.)
Summary of the method: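 Luciferase luminescence quantified inhibition of protein synthesis relative to water controls, with no-DNA reactions giving background. Compounds in 2-fold serial dilution (8 levels) were incubated 1 hour at 37 °C with E. coli S30 extract, amino acids and pBESTluc plasmid, then chilled to stop.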

[3] = growth medium with sodium bicarbonate
[4] = A. baumannn, growth medium with sodium bicarbonate
[5] = class by IC50 or % inhibition @ 1 μM
[6] = growth medium supplemented with sodium bicarbonate

Row | Compound | IC50 ([1]; % inhibition @ 1 μM) | MIC (E. faecalis (Ef); [3]) | MIC (A. baumannn (Ab); [4]) | MIC (E. coli (Ec); [3]) | MIC (S. aureus (Sa); [3]) | MIC (P. aeruginosa (Pa); [3]) | IC50 ([2]; % inhibition @ 1 μM) | IC50 [1, 5] | Ef + bicarb MIC (E. faecalis (Ef); [6]) | Ab + bicarb MIC (A. baumannn (Ab)) | E. coli + bicarb MIC (E. coli (Ec); [6]) | Sa + bicarb MIC (S. aureus (Sa); [6]) | Pa MIC + bicarb (P. aeruginosa (Pa); [6]) | IC50 [2, 5] | MIC (E. faecalis (Ef); [6]) | MIC (A. baumannn (Ab); Acinetobacter baumannii) | MIC (E. coli (Ec); [6]) | MIC (S. aureus (Sa); [6]) | MIC (P. aeruginosa (Pa); [6])
1 | NCC1CC2(CCN(C(=O)Nc3ccn(-c4ccc(CN5C[C@@H]6[C@@H](N)[C@@H]6C5)cc4)c(=O)n3)CC2)C1 [Compound 252] | ≥ 1 µM | > 32 µg/mL | > 32 µg/mL | < 8 µg/mL | < 8 µg/mL | > 32 µg/mL | 0.5 to 1 µM | – | – | – | – | – | – | – | – | – | – | – | –
2 | CC(C)(N)C(=O)N1CCN(C(=O)Nc2ccn(-c3ccc(CN4CCC5(N)CC5C4)cc3)c(=O)n2)CC1 (stereo not shown) [Compound 20] | – | – | – | – | – | – | – | ≥ 1 µM | ++ (An MIC value (μg/mL) that is 8 μg/mL or greater and less than 32 μg/mL) | + (An MIC (μg/mL) value that is 32 μg/mL or greater) | +++ (An MIC value (μg/mL) that is less than 8 μg/mL) | +++ (An MIC value (μg/mL) that is less than 8 μg/mL) | + (An MIC (μg/mL) value that is 32 μg/mL or greater) | ≥ 1 µM | – | – | – | – | –
3 | Cc1cc(-n2ccc(NC(=O)N3CCN(C(=O)[C@@](C)(N)CO)CC3)nc2=O)ccc1CCN1C[C@@H]2[C@@H](CN)[C@@H]2C1 [Compound 129] | – | – | – | – | – | – | – | ≥ 1 µM | – | – | – | – | – | < 0.5 µM | 8 to 32 µg/mL | > 32 µg/mL | < 8 µg/mL | < 8 µg/mL | 8 to 32 µg/mL
4 | CCN(Cc1ccc(-n2ccc(NC(=O)N3CCN(C(=O)C(C)(C)N)CC3)nc2=O)cc1)C12CC(N)(C1)C2 [Compound 170] | ≥ 1 µM | > 32 µg/mL | > 32 µg/mL | < 8 µg/mL | > 32 µg/mL | > 32 µg/mL | < 0.5 µM | – | – | – | – | – | – | – | – | – | – | – | –
5 | CN(CCc1ccc(-n2ccc(NC(=O)N3CCN(C(=O)C(C)(C)N)CC3)nc2=O)cc1)C1CC2(CC(N)C2)C1 (stereo not shown) [Compound 193] | ≥ 1 µM | 8 to 32 µg/mL | > 32 µg/mL | < 8 µg/mL | < 8 µg/mL | > 32 µg/mL | ≥ 1 µM | – | – | – | – | – | – | – | – | – | – | – | –
6 | CC(Cc1ccc(-n2ccc(NC(=O)N3CCN(C(=O)C(C)(C)N)C[C@H]3C)nc2=O)cc1)N1C[C@@H]2[C@@H](CN)[C@@H]2C1 (stereo partly shown) [Compound 124] | – | – | – | – | – | – | – | ≥ 1 µM | – | – | – | – | – | < 0.5 µM | < 8 µg/mL | > 32 µg/mL | < 8 µg/mL | < 8 µg/mL | 8 to 32 µg/mL
7 | CC(C)(N)C(=O)N1CCN(C(=O)Nc2ccn(-c3cccc(CCN4CC5CCC(C4)C5N)c3)c(=O)n2)CC1 (stereo not shown) [Compound 113] | – | – | – | – | – | – | – | ≥ 1 µM | – | – | – | – | – | ≥ 1 µM | > 32 µg/mL | > 32 µg/mL | < 8 µg/mL | > 32 µg/mL | > 32 µg/mL
8 | NC1CCC12CCN(C(=O)Nc1ccn(-c3ccc(CN4C[C@@H]5[C@@H](N)[C@@H]5C4)cc3)c(=O)n1)CC2 (stereo partly shown) [Compound 64] | – | – | – | – | – | – | – | ≥ 1 µM | – | – | – | – | – | ≥ 1 µM | 8 to 32 µg/mL | > 32 µg/mL | 8 to 32 µg/mL | 8 to 32 µg/mL | > 32 µg/mL
9 | CC(C)(N)C(=O)N1CCN(C(=O)Nc2ccn(-c3ccc(CNC[C@@H]4[C@H]5CNC[C@@H]45)cc3)c(=O)n2)CC1 [Compound 190] | ≥ 1 µM | 8 to 32 µg/mL | > 32 µg/mL | < 8 µg/mL | < 8 µg/mL | > 32 µg/mL | < 0.5 µM | – | – | – | – | – | – | – | – | – | – | – | –
10 | N[C@@H]1[C@H]2CN(Cc3ccc(-n4ccc(NC(=O)N5CCC6(CC5)CNC6)nc4=O)cc3)C[C@@H]12 [Compound 61] | – | – | – | – | – | – | – | ≥ 1 µM | – | – | – | – | – | ≥ 1 µM | > 32 µg/mL | > 32 µg/mL | 8 to 32 µg/mL | > 32 µg/mL | > 32 µg/mL
11 | CN(Cc1ccc(-n2ccc(NC(=O)N3CCN(C(=O)C(C)(C)N)CC3)nc2=O)cc1)C12CC(N)(C1)C2 [Compound 169] | ≥ 1 µM | > 32 µg/mL | > 32 µg/mL | 8 to 32 µg/mL | > 32 µg/mL | > 32 µg/mL | ≥ 1 µM | – | – | – | – | – | – | – | – | – | – | – | –
12 | CC(Cc1ccc(-n2ccc(NC(=O)N3CCN(C(=O)[C@H](C)N)CC3)nc2=O)cc1)N1C[C@@H]2[C@@H](CN)[C@@H]2C1 (stereo partly shown) [Compound 222] | ≥ 1 µM | 8 to 32 µg/mL | > 32 µg/mL | < 8 µg/mL | < 8 µg/mL | > 32 µg/mL | 0.5 to 1 µM | – | – | – | – | – | – | – | – | – | – | – | –
13 | CC(C)(N)C(=O)N1CCN(C(=O)Nc2ccn(-c3ccc(CN4C[C@@H]5C(C(C)(C)N)[C@@H]5C4)cc3)c(=O)n2)CC1 (stereo partly shown) [Compound 206] | ≥ 1 µM | 8 to 32 µg/mL | > 32 µg/mL | < 8 µg/mL | < 8 µg/mL | > 32 µg/mL | < 0.5 µM | – | – | – | – | – | – | – | – | – | – | – | –
14 | CC(C)(N)C(=O)N1CCN(C(=O)Nc2ccn(-c3ccc(CCN4C5CCC4CC(N)C5)cc3)c(=O)n2)CC1 (stereo not shown) [Compound 106] | – | – | – | – | – | – | – | ≥ 1 µM | ++ (An MIC value (μg/mL) that is 8 μg/mL or greater and less than 32 μg/mL) | – | – | – | – | ≥ 1 µM | – | > 32 µg/mL | < 8 µg/mL | < 8 µg/mL | > 32 µg/mL
15 | CC(C)(N)C(=O)N1CCN(C(=O)Nc2ccn(-c3ccc(CN4CCC5(N)CC5C4)cc3)c(=O)n2)CC1 (stereo not shown) [Compound 23] | – | – | – | – | – | – | – | ≥ 1 µM | +++ (An MIC value (μg/mL) that is less than 8 μg/mL) | + (An MIC (μg/mL) value that is 32 μg/mL or greater) | +++ (An MIC value (μg/mL) that is less than 8 μg/mL) | +++ (An MIC value (μg/mL) that is less than 8 μg/mL) | + (An MIC (μg/mL) value that is 32 μg/mL or greater) | < 0.5 µM | – | – | – | – | –
16 | CC(Cc1ccc(-n2ccc(NC(=O)N3CCN(C(=O)C(C)(C)N)CC3)nc2=O)cc1)N1CC2CCCC(N)C2C1 (stereo not shown) [Compound 216] | ≥ 1 µM | < 8 µg/mL | > 32 µg/mL | < 8 µg/mL | < 8 µg/mL | > 32 µg/mL | < 0.5 µM | – | – | – | – | – | – | – | – | – | – | – | –
17 | CC(C)(N)C(=O)N1CCN(C(=O)Nc2ccn(-c3ccc(CCN4C[C@@H]5[C@H](C4)[C@H]5C(N)CO)cc3)c(=O)n2)CC1 (stereo partly shown) [Compound 210] | ≥ 1 µM | 8 to 32 µg/mL | > 32 µg/mL | < 8 µg/mL | < 8 µg/mL | > 32 µg/mL | 0.5 to 1 µM | – | – | – | – | – | – | – | – | – | – | – | –
18 | CC(C)(N)C(=O)N1CCN(C(=O)Nc2ccn(-c3ccc(CCCN4C[C@@H]5[C@@H](CN)[C@@H]5C4)cc3)c(=O)n2)CC1 [Compound 185] | ≥ 1 µM | 8 to 32 µg/mL | > 32 µg/mL | < 8 µg/mL | < 8 µg/mL | > 32 µg/mL | ≥ 1 µM | – | – | – | – | – | – | – | – | – | – | – | –
19 | NC[C@H]1CCN(C(=O)Nc2ccn(-c3ccc(CN4C[C@@H]5[C@@H](N)[C@@H]5C4)cc3)c(=O)n2)C1 [Compound 253] | ≥ 1 µM | > 32 µg/mL | > 32 µg/mL | > 32 µg/mL | > 32 µg/mL | > 32 µg/mL | ≥ 1 µM | – | – | – | – | – | – | – | – | – | – | – | –
